Assay [1] concerns the target T1, intracellular domain of human Tie2 (GST fusion protein) (Homo sapiens, UniProt Q02763).
T1 construct: intracellular domain of human Tie2 (amino acids 776-1124); made in house; host or cells: Baculovirus-infected insect cells (Hi5)
Kind of assay: Tie2 kinase assay (Tie2-TR-FRET). The format is biochemical. To be noted: ATP concentration 1 mM, in some cases means of several independent determinations. The method in brief: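 GST fusion of human Tie2 intracellular domain (aa 776-1124, Hi5-expressed), ~30 ng/ml, pre-incubated 15 min with compound, then 1 mM ATP and 1 μM biotinylated peptide, 60 min at 22 °C, pH 7. TR-FRET (Eu anti-phosphotyrosine/streptavidin-XL665, 665/620 nm ratio). […] 20 μM–0.073 nM in duplicate; IC50 by 4-parameter fit.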

Another assay has as its target T2, endogenous Tie2 receptor (Homo sapiens, UniProt Q02763).
T2 construct: the endogenous Tie2 receptor; host or cells: HUVEC (human umbilical vein endothelial cells)
The assay can be described thus: Tie2-pTyr-ELISA: autophosphorylation of endogenous Tie2 receptor in HUVEC. It counts as cell-based. To be noted: autophosphorylation elevated by sodium orthovanadate (4 mM), Tie2/phosphotyrosine sandwich ELISA, from 2-7 independent measurements. Here is the method: The cellular activity of the compounds according to the invention as Tie2 kinase inhibitors was determined in human endothelial cells (HUVEC) by measuring the inhibition of the autophosphorylation, elevated by treatment with sodium orthovanadate, of the endogenous Tie2 receptor by means of a Tie2/phosphotyrosine sandwich ELISA.
Human endothelial cells (human umbilical vein endothelial cells, HUVEC) were obtained from Cellsystems (FC-0003), cultured in Vasculife VEGF complete medium (Cellsystems, LL-1020) with 2% foetal calf serum (FCS) at 37° C./5% CO2 and used for Tie2-ELISA measurements up to passage 8.
HUVEC were plated in a culture volume of 100 μl of Vasculife VEGF complete medium at a cell density of 30 000 cells per well in transparent collagen-coated 96-well cell culture plates (Falcon, #353075) and incubated in an incubation cabinet at 37° C./5% CO2 overnight. The test substances dissolved in DMSO were used to prepare in each case one dilution series in Vasculife VEGF low-serum medium [basal medium with LifeFactors (Cellsystems, LM-0002), without FCS, with 0.1% BSA] without sodium orthovanadate and one dilution series in Vasculife VEGF low-serum-medium with 8 mM sodium orthovanadate in the desired concentrations in the range from 10 pM to 10 μM, the final DMSO concentration being 1%. After removal of the complete medium, 100 μl per well of the dilute substances in low-serum medium without sodium orthovanadate were pipetted onto the cells, and the plates were incubated in an incubation cabinet at 37° C./5% CO2 for 10 min. A further 100 μl of the same substance dilution in low-serum medium with 8 mM sodium orthovanadate were then pipetted into the respective well and the cells were incubated in a volume of now 200 μl in the presence of 4 mM sodium orthovanadate at the desired substance concentration in an incubation cabinet at 37° C./5% CO2 for a further 20 min. The cell supernatant of the plates was then removed and the cells were washed once with 250 μl per well of cold PBS which contained 4 mM sodium orthovanadate. 120 μl of Duschl lysis buffer [50 mM HEPES pH 7.2, 150 mM NaCl, 1 mM MgCl2, 10% glycerol, 1.5% Triton X-100, 4 mM sodium orthovanadate, 250 μl S-PIC phosphatase inhibitor cocktail 2 (Sigma, P5726) and 1 tablet of Complete proteinase inhibitor mixture (Roche, #1836145) per 10 ml] were then added to the cells in each well. The plates were shaken briefly and then incubated on ice for 20 min, and the lysates in the cell culture plates were then frozen at −80° C. for at least 30 min.
For measuring the autophosphorylation of the endogenous Tie2 receptor in the cell lysates prepared, a self-prepared anti-Tie2 antibody directed against the N-terminus of the Tie-2 receptor (1.09 mg/ml) and an HRP-coupled anti-phosphotyrosine antibody (Sigma, A4595, clone pY-20) were used. White 96-well ELISA plates (Lumitrac600, Greiner, #655074) were incubated with 100 μl per well of a 1:1000 dilution of the anti-Tie2 antibody in coating buffer [15 mM Na2CO3, 35 mM NaHCO3, pH 9.6] with shaking at 4° C. overnight. The coated ELISA plates were washed three times with 250 μl PBST buffer [0.1% Tween-20 in PBS], the wells were blocked with 250 μl 3% BSA in PBST buffer with shaking at RT for 1-6 h and washed three more times with 250 μl PBST buffer. From the cell lysate plates thawed in the fridge, in each case 100 μl of lysate were transferred into the coated wells of the ELISA plates, and the plates were incubated with shaking at 4° C. overnight. The plates were washed three times with in each case 250 μl of PBST buffer, and 100 μl of a 1:5000 dilution of the anti-phosphotyrosine HRP antibody in 3% Prionex (Calbiochem, #529600) in PBST were then pipetted into each well and the plates were incubated with shaking and protected from light at 4° C. overnight. […]

Experimental findings from patent US20150005288A1, “SUBSTITUTED PHENYLIMIDAZOPYRAZOLES AND USE THEREOF” (Bayer Intellectual Property GmbH, priority 2012, published 2015) are described below.

SMILES strings stand for the structures.

T1 sequence (Q02763 776-1124): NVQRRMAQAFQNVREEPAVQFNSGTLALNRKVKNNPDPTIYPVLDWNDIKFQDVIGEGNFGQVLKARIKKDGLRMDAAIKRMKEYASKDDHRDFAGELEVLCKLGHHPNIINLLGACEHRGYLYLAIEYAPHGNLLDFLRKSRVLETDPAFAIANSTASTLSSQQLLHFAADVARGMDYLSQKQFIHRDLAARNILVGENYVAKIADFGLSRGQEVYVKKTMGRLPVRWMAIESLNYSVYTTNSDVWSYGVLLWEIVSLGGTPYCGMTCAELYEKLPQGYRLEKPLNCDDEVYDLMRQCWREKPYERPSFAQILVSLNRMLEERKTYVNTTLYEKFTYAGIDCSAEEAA
T2 sequence (Q02763 23-1124): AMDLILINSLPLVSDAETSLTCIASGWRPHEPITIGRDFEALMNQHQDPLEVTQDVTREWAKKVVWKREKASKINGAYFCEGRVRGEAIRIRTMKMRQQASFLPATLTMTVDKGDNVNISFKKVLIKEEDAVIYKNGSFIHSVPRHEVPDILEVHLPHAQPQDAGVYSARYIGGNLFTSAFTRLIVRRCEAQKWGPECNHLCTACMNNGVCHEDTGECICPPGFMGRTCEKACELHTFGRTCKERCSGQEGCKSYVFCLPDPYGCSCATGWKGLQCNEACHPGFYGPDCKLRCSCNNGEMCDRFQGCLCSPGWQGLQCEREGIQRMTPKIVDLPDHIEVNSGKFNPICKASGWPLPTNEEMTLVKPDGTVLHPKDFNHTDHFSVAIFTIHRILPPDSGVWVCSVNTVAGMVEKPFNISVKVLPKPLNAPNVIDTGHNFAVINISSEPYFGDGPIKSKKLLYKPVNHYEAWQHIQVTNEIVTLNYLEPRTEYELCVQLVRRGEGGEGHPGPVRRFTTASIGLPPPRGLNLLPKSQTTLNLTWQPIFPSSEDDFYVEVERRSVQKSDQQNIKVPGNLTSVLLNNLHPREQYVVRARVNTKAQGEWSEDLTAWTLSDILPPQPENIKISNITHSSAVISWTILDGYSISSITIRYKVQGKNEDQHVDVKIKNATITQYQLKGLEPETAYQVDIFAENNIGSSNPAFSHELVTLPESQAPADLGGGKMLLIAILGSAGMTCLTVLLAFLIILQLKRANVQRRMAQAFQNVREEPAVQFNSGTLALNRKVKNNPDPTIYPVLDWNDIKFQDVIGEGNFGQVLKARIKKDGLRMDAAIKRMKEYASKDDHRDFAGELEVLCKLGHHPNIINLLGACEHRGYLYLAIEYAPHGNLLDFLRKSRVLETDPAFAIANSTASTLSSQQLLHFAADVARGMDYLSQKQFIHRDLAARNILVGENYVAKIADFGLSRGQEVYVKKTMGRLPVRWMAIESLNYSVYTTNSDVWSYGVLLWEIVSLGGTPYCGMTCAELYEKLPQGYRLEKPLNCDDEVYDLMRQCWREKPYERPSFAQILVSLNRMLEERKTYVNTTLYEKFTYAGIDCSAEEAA

`COCc1cc(C(=O)Nc2cc(-n3ccn4nc(-c5cccnc5)cc34)c(C)cc2C)cc(S(F)(F)(F)(F)F)c1` [Example 112, N-{2,4-Dimethyl-5-[6-(pyridin-3-yl)-1H-imidazo[1,2-b]pyrazol-1-yl]phenyl}-3-(methoxymethyl)-5-(pentafluoro-λ^6-sulphanyl)benzamide]: the IC50 in assay [1] was 0.7 nM; at endogenous Tie2 receptor, 1.4 nM.
